The text below walks through data of ChEMBL document CHEMBL4184081, “Discovery of potent and selective inhibitors of calmodulin-dependent kinase II (CaMKII)” (Bioorg Med Chem Lett, 2018).

Data set [1] deals with T1, Cytochrome P450 1A2 (Homo sapiens, UniProt P05177).
T1 sequence (P05177 whole entry): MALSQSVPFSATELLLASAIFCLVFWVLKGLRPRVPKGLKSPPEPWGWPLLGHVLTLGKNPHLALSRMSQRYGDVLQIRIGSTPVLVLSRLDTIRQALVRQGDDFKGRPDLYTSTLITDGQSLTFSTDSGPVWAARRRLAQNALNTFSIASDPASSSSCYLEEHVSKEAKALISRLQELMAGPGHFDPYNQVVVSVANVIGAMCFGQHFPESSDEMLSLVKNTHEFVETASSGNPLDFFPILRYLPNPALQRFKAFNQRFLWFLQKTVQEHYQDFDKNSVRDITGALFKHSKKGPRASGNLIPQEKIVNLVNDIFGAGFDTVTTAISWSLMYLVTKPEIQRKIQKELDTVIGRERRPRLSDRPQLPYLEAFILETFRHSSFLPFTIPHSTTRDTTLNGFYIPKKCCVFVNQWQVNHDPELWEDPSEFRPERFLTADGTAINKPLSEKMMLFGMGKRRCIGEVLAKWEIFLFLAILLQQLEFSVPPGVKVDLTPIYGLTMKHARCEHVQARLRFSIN
The data set can be described thus: Inhibition of CYP1A2 (unknown origin). Format: ADME.

Data set [2] is described as follows: Unbound plasma concentration in dog. Format: ADME, organism-based, Canis lupus familiaris.
Data set [3] in a line: Volume of distribution at steady state in rat at 1 mg/kg, iv. Format: ADME, organism-based. Particulars: in vivo, read-out: Vdss.
Data set [4] addresses Cytochrome P450 2C9 (Homo sapiens, UniProt P11712). The data set can be described thus: Inhibition of CYP2C9 (unknown origin). In kind it is ADME.
A short description of data set [5]: AUC (0 to infinity) in rat at 5 mg/kg, po. Format: ADME, organism-based. Set-up: dose 5 mg/kg, time infinity, route oral. The following applies: in vivo.
Data set [6] can be described thus: Unbound plasma concentration in human. Format: ADME, organism-based.
The nature of data set [7]: Half life in dog liver microsomes. Format: ADME, Canis lupus familiaris, microsome. A general note: Microsomes from liver hold many membrane-bound enzymes, among them those of drug oxidation.
The nature of data set [8]: Half life in human liver microsomes. Format: ADME, microsome.
Data set [9] is described as follows: Unbound plasma concentration in rat. In kind it is ADME, organism-based.
A short description of data set [10]: Half life in rat liver microsomes. In kind it is ADME, microsome.
The nature of data set [11]: Half life in rat at 1 mg/kg, iv. Format: ADME, organism-based. The following applies: in vivo.
The target of data set [12] is CaM kinase II delta/gamma (Rattus norvegicus, UniProt P11730+P15791). The data set can be described thus: Inhibition of CaMK2gamma/delta in neonatal rat ventricular myocytes assessed as phospholamban phosphorylation after 4 hrs by Hoechst 33342 fluorescence based assay. Format: cell-based.
Sequence of CaM kinase II delta/gamma (P15791 whole entry): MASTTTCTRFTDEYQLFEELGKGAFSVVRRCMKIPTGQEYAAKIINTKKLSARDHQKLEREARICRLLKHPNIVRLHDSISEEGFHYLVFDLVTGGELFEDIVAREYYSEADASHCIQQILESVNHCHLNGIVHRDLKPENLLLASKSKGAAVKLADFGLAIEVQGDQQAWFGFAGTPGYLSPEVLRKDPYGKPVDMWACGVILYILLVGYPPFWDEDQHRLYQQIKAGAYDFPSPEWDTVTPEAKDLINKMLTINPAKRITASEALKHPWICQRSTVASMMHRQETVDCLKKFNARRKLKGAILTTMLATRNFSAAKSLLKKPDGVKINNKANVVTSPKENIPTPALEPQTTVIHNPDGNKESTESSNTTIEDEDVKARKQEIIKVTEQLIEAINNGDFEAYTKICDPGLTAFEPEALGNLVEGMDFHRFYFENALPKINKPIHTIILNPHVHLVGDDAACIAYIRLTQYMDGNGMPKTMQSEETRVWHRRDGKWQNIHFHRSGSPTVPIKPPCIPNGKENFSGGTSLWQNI
Sequence of CaM kinase II delta/gamma (P11730 whole entry): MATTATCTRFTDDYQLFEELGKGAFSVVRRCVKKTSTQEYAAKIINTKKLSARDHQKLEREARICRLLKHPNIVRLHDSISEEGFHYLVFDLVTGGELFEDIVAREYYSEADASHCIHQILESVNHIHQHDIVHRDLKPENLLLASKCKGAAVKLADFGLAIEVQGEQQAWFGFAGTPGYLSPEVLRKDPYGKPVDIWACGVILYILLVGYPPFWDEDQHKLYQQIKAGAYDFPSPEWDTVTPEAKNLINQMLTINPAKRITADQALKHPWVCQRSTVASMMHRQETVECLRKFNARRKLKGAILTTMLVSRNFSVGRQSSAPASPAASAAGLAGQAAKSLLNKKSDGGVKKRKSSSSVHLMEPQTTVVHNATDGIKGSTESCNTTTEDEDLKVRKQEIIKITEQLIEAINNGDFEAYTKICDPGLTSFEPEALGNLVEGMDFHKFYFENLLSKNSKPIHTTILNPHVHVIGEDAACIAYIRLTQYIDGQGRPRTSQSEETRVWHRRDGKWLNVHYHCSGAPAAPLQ
Data set [13] has as its target Cytochrome P450 2D6 (Homo sapiens, UniProt P10635). The data set can be described thus: Inhibition of CYP2D6 (unknown origin). In kind it is ADME.
The target of data set [14] is CaM kinase II alpha/beta (Rattus norvegicus, UniProt P08413+P11275). The data set can be described thus: Inhibition of CaMK2alpha/beta in neonatal rat cortical neurons assessed as phospholamban phosphorylation after 4 hrs by Hoechst 33342 fluorescence-based assay. In kind it is protein-complex assay.
Sequence of CaM kinase II alpha/beta (P11275 whole entry): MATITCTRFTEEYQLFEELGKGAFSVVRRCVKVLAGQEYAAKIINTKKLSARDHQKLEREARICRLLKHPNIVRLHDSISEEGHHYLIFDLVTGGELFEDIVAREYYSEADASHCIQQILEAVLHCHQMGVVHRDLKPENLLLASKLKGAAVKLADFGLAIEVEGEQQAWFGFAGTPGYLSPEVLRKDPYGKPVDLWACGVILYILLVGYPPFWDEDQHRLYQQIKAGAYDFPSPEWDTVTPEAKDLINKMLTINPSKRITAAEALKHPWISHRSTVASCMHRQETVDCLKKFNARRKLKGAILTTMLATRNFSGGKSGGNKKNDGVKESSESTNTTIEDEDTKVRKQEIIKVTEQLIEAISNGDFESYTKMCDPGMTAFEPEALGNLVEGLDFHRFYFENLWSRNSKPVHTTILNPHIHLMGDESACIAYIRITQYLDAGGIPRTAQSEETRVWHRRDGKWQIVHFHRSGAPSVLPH
Sequence of CaM kinase II alpha/beta (P08413 whole entry): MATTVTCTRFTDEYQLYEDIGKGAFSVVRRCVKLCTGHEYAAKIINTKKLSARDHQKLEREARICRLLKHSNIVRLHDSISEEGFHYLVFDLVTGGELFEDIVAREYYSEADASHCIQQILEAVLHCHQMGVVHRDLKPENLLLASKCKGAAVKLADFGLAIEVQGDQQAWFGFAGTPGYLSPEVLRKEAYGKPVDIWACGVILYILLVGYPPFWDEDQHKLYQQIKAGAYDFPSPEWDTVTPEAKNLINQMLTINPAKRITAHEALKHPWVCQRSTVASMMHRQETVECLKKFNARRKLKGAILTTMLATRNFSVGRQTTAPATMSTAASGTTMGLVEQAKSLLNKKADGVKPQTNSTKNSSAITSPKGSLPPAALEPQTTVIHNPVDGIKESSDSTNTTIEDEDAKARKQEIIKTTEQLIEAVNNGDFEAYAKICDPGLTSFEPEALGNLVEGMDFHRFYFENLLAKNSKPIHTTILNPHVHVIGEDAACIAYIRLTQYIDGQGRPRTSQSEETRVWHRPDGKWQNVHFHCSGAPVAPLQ
A short description of data set [15]: Thermodynamic aqueous solubility of the compound in pH 7.2. Format: physicochemical. The following applies: buffer, read-out: Therm_solubility.
Data set [16] concerns the target Cytochrome P450 2C19 (Homo sapiens, UniProt P33261). The data set can be described thus: Inhibition of CYP2C19 (unknown origin). Format: ADME.
Data set [17] is described as follows: Oral bioavailability in rat at 5 mg/kg. In kind it is ADME, organism-based. Particulars: in vivo.
Data set [18] can be described thus: Thermodynamic aqueous solubility of the compound in pH 2.2. Format: physicochemical. Particulars: buffer, read-out: Therm_solubility.
The nature of data set [19]: Clearance in rat at 1 mg/kg, iv. The following applies: in vivo. In kind it is ADME, organism-based.
Data set [20] addresses Cytochrome P450 3A4 (Homo sapiens, UniProt P08684). Description: Inhibition of CYP3A4 (unknown origin). Format: ADME.
Data set [21] has as its target Voltage-gated inwardly rectifying potassium channel KCNH2 (Homo sapiens, UniProt Q12809). The data set can be described thus: Inhibition of human ERG.

Values after ≈ are worked out from the molar mass of the structure shown.

Sequence of Voltage-gated inwardly rectifying potassium channel KCNH2 (Q12809 whole entry): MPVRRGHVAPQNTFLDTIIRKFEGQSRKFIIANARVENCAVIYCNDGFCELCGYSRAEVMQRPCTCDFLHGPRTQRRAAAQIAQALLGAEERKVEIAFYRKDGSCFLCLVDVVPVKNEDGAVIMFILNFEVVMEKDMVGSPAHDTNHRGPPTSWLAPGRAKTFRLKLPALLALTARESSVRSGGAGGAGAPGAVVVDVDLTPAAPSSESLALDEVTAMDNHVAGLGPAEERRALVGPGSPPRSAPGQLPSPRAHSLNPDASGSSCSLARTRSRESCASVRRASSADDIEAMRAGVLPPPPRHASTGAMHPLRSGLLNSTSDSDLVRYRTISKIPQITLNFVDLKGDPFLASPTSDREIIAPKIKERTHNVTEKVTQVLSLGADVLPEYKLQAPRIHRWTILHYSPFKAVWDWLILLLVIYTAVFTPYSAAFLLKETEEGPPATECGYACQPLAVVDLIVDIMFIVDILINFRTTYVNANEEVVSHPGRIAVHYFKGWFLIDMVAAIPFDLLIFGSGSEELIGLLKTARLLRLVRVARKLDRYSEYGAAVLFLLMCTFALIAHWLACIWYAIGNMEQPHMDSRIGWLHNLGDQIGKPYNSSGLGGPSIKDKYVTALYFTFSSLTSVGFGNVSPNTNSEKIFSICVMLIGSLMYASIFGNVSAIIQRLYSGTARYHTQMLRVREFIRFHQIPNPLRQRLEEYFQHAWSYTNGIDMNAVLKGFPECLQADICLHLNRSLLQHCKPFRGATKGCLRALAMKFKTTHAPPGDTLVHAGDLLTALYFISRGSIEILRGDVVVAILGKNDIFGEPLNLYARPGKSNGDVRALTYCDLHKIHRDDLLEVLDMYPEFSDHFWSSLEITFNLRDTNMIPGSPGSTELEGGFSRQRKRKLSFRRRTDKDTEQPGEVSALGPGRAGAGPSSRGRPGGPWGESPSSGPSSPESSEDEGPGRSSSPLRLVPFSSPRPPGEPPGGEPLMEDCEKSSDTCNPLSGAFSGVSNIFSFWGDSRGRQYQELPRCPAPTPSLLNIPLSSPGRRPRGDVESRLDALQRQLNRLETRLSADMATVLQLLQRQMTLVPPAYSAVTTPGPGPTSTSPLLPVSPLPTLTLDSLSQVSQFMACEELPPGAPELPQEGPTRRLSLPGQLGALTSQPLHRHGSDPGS
Sequence of Cytochrome P450 3A4 (P08684 whole entry): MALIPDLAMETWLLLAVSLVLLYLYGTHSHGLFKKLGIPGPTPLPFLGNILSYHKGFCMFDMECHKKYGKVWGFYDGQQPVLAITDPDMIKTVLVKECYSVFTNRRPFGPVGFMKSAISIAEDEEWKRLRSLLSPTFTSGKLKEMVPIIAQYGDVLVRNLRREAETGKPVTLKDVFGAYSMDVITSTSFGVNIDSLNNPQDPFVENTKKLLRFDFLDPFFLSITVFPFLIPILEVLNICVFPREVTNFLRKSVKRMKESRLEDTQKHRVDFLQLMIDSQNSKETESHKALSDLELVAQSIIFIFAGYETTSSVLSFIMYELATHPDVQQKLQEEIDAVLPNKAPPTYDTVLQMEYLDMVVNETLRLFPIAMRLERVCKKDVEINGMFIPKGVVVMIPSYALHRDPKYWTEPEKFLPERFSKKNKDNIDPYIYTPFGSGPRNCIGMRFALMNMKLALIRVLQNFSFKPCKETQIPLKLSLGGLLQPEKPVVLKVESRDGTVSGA
Sequence of Cytochrome P450 2C9 (P11712 whole entry): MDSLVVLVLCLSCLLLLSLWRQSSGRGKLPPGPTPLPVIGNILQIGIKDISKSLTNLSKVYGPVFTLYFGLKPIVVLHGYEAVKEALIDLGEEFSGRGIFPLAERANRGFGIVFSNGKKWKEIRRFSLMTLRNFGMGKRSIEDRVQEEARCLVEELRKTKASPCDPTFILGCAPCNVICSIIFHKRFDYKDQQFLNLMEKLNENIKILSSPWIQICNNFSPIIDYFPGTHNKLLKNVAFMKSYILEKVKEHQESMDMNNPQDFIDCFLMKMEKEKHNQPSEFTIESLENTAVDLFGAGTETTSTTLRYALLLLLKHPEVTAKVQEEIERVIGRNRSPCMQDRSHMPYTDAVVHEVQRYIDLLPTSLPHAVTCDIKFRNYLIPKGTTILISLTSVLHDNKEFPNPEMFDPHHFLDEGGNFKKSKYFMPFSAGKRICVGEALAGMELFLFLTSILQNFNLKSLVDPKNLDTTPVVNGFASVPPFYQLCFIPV
Sequence of Cytochrome P450 2C19 (P33261 whole entry): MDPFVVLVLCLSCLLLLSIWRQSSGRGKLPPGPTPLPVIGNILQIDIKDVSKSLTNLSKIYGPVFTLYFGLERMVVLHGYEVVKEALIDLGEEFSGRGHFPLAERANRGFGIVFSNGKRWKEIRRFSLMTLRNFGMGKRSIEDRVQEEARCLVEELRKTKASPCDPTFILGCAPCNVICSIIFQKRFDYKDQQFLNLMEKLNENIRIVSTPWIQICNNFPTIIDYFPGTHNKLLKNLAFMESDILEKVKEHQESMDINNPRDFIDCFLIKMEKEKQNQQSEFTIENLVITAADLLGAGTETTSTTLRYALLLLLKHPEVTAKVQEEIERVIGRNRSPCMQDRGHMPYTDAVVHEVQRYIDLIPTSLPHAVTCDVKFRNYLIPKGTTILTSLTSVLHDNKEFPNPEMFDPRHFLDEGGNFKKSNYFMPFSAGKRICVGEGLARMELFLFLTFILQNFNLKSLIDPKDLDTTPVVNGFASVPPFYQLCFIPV

On to `CCN(CC)[C@@H](C)CNC(=O)c1cc(-c2cnn3ccc(-c4cccs4)nc23)nc(N2CC(OC)C2)c1`, for which the IC50 in [1], in [4], in [13], in data set [16] and in data set [20] was above 25 µM in each case. The fraction unbound (usually free concentration divided by total concentration) is 0.159 in data set [2], 0.071 in data set [6] and 0.151 in data set [9]. Also, in [3], the Vd came to 7.34 L/kg. Moreover, the AUC(0-inf) (as a rule, total exposure, with the tail of the curve extrapolated) in [5] came out at 3000 nM·h. Further, the half-life (commonly the time needed for the level to fall by half in the phase considered) in [7] was 43 min; in data set [8], 62 min; in data set [10], 61 min; in data set [11] it was 258 min. For the same compound, the EC50 (commonly the concentration needed to bring the measured effect to its halfway point) in [12] is 0.0074 µM; in [14], 0.12 µM. Also, the solubility thermodynamic is 0.2 mg/mL (≈ 0.385 mM) in data set [15] and above 20 mg/mL in [18]. Further, the bioavailability (as a rule, the share of a dose that reaches the circulation, judged against a reference dose that is usually intravenous) in data set [17] was found to be 73%. Besides, the clearance – broadly, the volume of plasma or blood freed of the substance per unit of time – in [19] is 1.53 L/h/kg.

As to `CCN(CC)CCNC(=O)c1ccnc(-c2cnn3ccc(-c4cccs4)nc23)c1`, the half-inhibitory concentration (IC50) – broadly, the concentration at which inhibition is half-maximal – in [21] was determined as 1.17 µM. In other words, the single-digit micromolar range.

In data set [21], `CCc1cc(C(=O)NC[C@H](C)N(CC)CC)cc(-c2cnn3ccc(-c4cccs4)nc23)n1` displayed an IC50 of 3.28 µM.

As to `CCN(CC)[C@@H](C)CNC(=O)c1cc(-c2cnn3ccc(-c4cccs4)nc23)nc(N2CC(O)C2)c1`, in data set [21], the IC50 is above 30 µM. In addition, the fraction unbound turned out to be 0.291 in [2], 0.177 in data set [6] and 0.363 in [9]. Further, the Vd in data set [3] turned out to be 22.1 L/kg. In addition, the half-life in data set [7] is 27 min; in data set [8] it was 58 min; in data set [10], 48 min; in data set [11] it was 353 min. In addition, the results for the EC50 in data set [12] and in data set [14] were 0.0062 µM and 0.274 µM, respectively. Besides, the solubility thermodynamic in data set [15] was determined as 8.4 mg/mL (≈ 16.6 mM); in data set [18], 15 mg/mL (≈ 29.7 mM). For the same compound, the clearance in [19] was 4.85 L/h/kg.

The compound `CCN(CC)[C@@H](C)CNC(=O)c1ccnc(-c2cnn3ccc(-c4cccs4)nc23)c1` had an IC50 in data set [21] of 0.718 µM.
